Experimental data as given in patent US10344026B2, “Compositions and methods of targeting mutant K-ras” (NANTBIO, INC., priority 2017, dated 2019).

Key:
Assay type in all cases: cell-based
wild type K-Ras = molecular target: T1, wild type K-Ras (Homo sapiens, UniProt P01116); assay: G-LISA Ras activation, 293H cells transfected with Ras wild-type, EGF stimulated; conditions: compound 1 hour, then 100 ng/ml EGF 2 minutes
T1 construct: expressed in transfected cells; host or cells: 293H cells
Method in brief: (§1)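 293H cells were transfected with wild-type or mutant Ras plasmid (Lipofectamine 3000), then exposed next day to compounds at 3.125-25 μM for 1 hour. Wild-type transfectants received 100 ng/ml EGF for 2 minutes before ice-cold PBS wash, lysis on ice and G-LISA readout of active Ras.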

K-Ras G12D = molecular target: T2, K-Ras G12D (Homo sapiens, UniProt P01116, G12D); assay: G-LISA Ras activation, 293H cells transfected with G12D mutant; conditions: compound 1 hour
T2 construct: expressed in transfected cells; host or cells: 293H cells
T2 sequence (P01116 whole entry G12D): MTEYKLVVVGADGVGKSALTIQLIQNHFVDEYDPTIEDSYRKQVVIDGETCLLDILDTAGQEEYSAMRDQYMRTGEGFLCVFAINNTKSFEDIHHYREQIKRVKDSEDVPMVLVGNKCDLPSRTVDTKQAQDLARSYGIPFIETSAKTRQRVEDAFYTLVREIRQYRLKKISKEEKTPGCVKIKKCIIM
Method in brief: as §1

K-Ras G12V = molecular target: T3, K-Ras G12V (Homo sapiens, UniProt P01116, G12V); assay: G-LISA Ras activation, 293H cells transfected with G12V mutant; conditions: compound 1 hour
T3 construct: expressed in transfected cells; host or cells: 293H cells
T3 sequence (P01116 whole entry G12V): as the sequence (P01116 whole entry G12D) above, with D12V counted along it
Description: 293H cells were seeded in 6-wells at 0.6×10^6 cells per well and transfected next day with 5 μg of Ras wild-type, or G12C, G12D or G12V mutant DNA plasmid vector using transfection reagent Lipofectamine 3000. Next day cells were treated with 3.125-25 μM of Ras compounds for 1 hour. Wild-type transfected cells were subsequently treated with 100 ng/ml EGF for 2 minutes. Cells were washed once in ice-cold PBS, lysed in complete lysis buffer on ice, and processed by G-LISA according to Cytoskeleton protocol.

[1] = tested on: Ishikawa (K-Ras wild type cell line); assay: Viability assay (CellTiterBlue, 72 hr) Ishikawa; conditions: Homo sapiens, GI50, CellTiterBlue, Ishikawa K-Ras wild-type
Method in brief: (§2)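 1000 cells/well, 18 hr pre-incubation at 37 °C; compound added from DMSO stock, 0.5% DMSO final; 72 hr; CellTiterBlue 3 hr, fluorescence Ex550/Em590; GI50 normalized to DMSO = 100%, 100 uM tamoxifen = 0% viability.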

[2] = tested on: U87-MG (K-Ras wild type cell line); assay: Viability assay (CellTiterBlue, 72 hr) U87-MG; conditions: Homo sapiens, U-87 MG, GI50, CellTiterBlue, U87-MG K-Ras wild-type
Method in brief: as §2

[3] = tested on: HCC827 (K-Ras wild type cell line); assay: Viability assay (CellTiterBlue, 72 hr) HCC827; conditions: Homo sapiens, GI50, CellTiterBlue, HCC827 K-Ras wild-type
Method in brief: as §2

Panc1-G12D = assay: Viability assay (CellTiterBlue, 72 hr) Panc1; conditions: Homo sapiens, PANC-1, GI50, CellTiterBlue, Panc1 K-Ras G12D, read-out: 72 hr Cell Viability Panc1 (G12D)
Method in brief: as §2

Panc10.05-G12D = assay: Viability assay (CellTiterBlue, 72 hr) Panc10.05; conditions: Homo sapiens, Panc1005, GI50, CellTiterBlue, Panc10.05 K-Ras G12D, read-out: 72 hr Cell Viability Panc10.05 (G12D)
Method in brief: as §2

HCT116-G31D = assay: Viability assay (CellTiterBlue, 72 hr) HCT116; conditions: Homo sapiens, HCT-116, GI50, CellTiterBlue, HCT116 K-Ras G13D, read-out: 72 hr Cell Viability HCT116 (G13D)
Method in brief: as §2

[4] = tested on: phospho-ERK in HCC827 (Wild-type); assay: In-Cell Western phospho-ERK, HCC827; conditions: Homo sapiens, 1 h; HCC827, one hour treatment; read-out: In-Cell Western HCC827 (Wild-type) Erk (P)
Method in brief: (§3)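 In-cell immunofluorescence: after 1 h compound exposure (final DMSO 0.5%) of cells plated 18 h beforehand, fixed cells were probed overnight at 4 °C with phospho-Akt/phospho-ERK antibodies and imaged. Maximal inhibition defined by 1 uM MEK Inhibitor II for pERK, 1 uM BEZ235 for pAkt; EC50 calculated.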

[5] = tested on: phospho-Akt in HCC827 (Wild-type); assay: In-Cell Western phospho-Akt, HCC827; conditions: Homo sapiens, 1 h; HCC827, one hour treatment; read-out: In-Cell Western HCC827 (Wild-type) Akt (P)
Method in brief: as §3

[6] = tested on: phospho-ERK in Panc1 (G12D); assay: In-Cell Western phospho-ERK, Panc1; conditions: Homo sapiens, PANC-1, 1 h; Panc1, one hour treatment; read-out: In-Cell Western Panc1 (G12D) Erk (P)
Method in brief: as §3

[7] = tested on: phospho-Akt in Panc1 (G12D); assay: In-Cell Western phospho-Akt, Panc1; conditions: Homo sapiens, PANC-1, 1 h; Panc1, one hour treatment; read-out: In-Cell Western Panc1 (G12D) Akt (P)
Method in brief: as §3

[8] = tested on: phospho-ERK in Panc10.05 (G12D); assay: In-Cell Western phospho-ERK, Panc10.05; conditions: Homo sapiens, Panc1005, 1 h; Panc10.05, one hour treatment; read-out: In-Cell Western Panc10.05 (G12D) Erk (P)
Method in brief: as §3

[9] = tested on: phospho-Akt in Panc10.05 (G12D); assay: In-Cell Western phospho-Akt, Panc10.05; conditions: Homo sapiens, Panc1005, 1 h; Panc10.05, one hour treatment; read-out: In-Cell Western Panc10.05 (G12D) Akt (P)
Method in brief: as §3

[10] = tested on: A375 (K-Ras wild type cell line); assay: Viability assay (CellTiterBlue, 72 hr) A375; conditions: Homo sapiens, A-375, GI50, CellTiterBlue
Method in brief: as §2

[11] = tested on: phospho-ERK in A375 (Wild-type); assay: In-Cell Western phospho-ERK, A375; conditions: Homo sapiens, A-375, 1 h; A375, one hour treatment; read-out: In-Cell Western A375 (Wild-type) Erk (P)
Method in brief: as §3

[12] = tested on: phospho-Akt in A375 (Wild-type); assay: In-Cell Western phospho-Akt, A375; conditions: Homo sapiens, A-375, 1 h; A375, one hour treatment; read-out: In-Cell Western A375 (Wild-type) Akt (P)
Method in brief: as §3

T1 sequence (P01116 whole entry): as the sequence (P01116 whole entry G12D) above, with D12G counted along it

Compound	IC50 (wild type K-Ras)	IC50 (K-Ras G12D)	IC50 (K-Ras G12V)	IC50 [1]	IC50 [2]	IC50 [3]	IC50 (Panc1-G12D)	IC50 (Panc10.05-G12D)	IC50 (HCT116-G31D)	EC50 [4]	EC50 [5]	EC50 [6]	EC50 [7]	EC50 [8]	EC50 [9]	IC50 [10]	EC50 [11]	EC50 [12]
CCc1nc(C)c(C(=O)Nc2nc(-c3ccc4c(c3)CCC(=O)N4Cc3cccnc3)cs2)o1 [Compound 64, 2-ethyl-4-methyl-N-(4-(2-oxo-1-(pyridin-3-ylmethyl)-1,2,3,4-tetrahydroquinolin-6-yl)thiazol-2-yl)oxazole-5-carboxamide]	> 25 µM	3 µM	9.6 µM	3.5 µM	2 µM	10 µM	5 µM	2 µM	5 µM	7 µM	15 µM	5 µM	6 µM	9 µM	> 25 µM	–	–	–
CCc1nc(C)c(C(=O)Nc2nc(-c3ccc4c(c3)CCC(=O)N4Cc3ccccn3)cs2)o1 [Compound 63, 2-ethyl-4-methyl-N-(4-(2-oxo-1-(pyridin-2-ylmethyl)-1,2,3,4-tetrahydroquinolin-6-yl)thiazol-2-yl)oxazole-5-carboxamide]	> 25 µM	5.6 µM	9.8 µM	4 µM	1.5 µM	5 µM	5 µM	2 µM	4 µM	6 µM	10 µM	3 µM	4 µM	7 µM	> 25 µM	–	–	–
Cc1nc(C2CC2)oc1C(=O)Nc1nc(-c2ccc3c(c2)CCC(=O)N3Cc2ccccc2)cs1 [Compound 58, N-(4-(1-benzyl-2-oxo-1,2,3,4-tetrahydroquinolin-6-yl)thiazol-2-yl)-2-cyclopropyl-4-methyloxazole-5-carboxamide]	20.4 µM	5.2 µM	21.6 µM	2.3 µM	4 µM	–	1.7 µM	3.4 µM	4 µM	–	–	–	6 µM	–	3 µM	–	–	–
Cc1nc(C(C)C)oc1C(=O)Nc1nc(-c2ccc3c(c2)CCC(=O)N3)cs1 [Compound 7, 2-isopropyl-4-methyl-N-(4-(2-oxo-1,2,3,4-tetrahydroquinolin-6-yl)thiazol-2-yl)oxazole-5-carboxamide]	11.7 µM	4.8 µM	> 25 µM	> 25 µM	> 25 µM	> 25 µM	8 µM	2 µM	> 25 µM	> 25 µM	–	> 25 µM	> 25 µM	4 µM	8 µM	> 25 µM	> 25 µM	> 25 µM
Cc1nc(C2CC2)oc1C(=O)Nc1nc(-c2ccc3c(c2)CCC(=O)N3)cs1 [Compound 6, 2-cyclopropyl-4-methyl-N-(4-(2-oxo-1,2,3,4-tetrahydroquinolin-6-yl)thiazol-2-yl)oxazole-5-carboxamide]	10.6 µM	7.3 µM	19.4 µM	10 µM	5 µM	–	2.4 µM	3.6 µM	> 25 µM	–	–	4 µM	–	2 µM	3 µM	–	–	–
